Measurements published in patent US20220388972A1, “CHROMAN-4-ONE DERIVATIVES FOR THE TREATMENT AND PROPHYLAXIS OF HEPATITIS B VIRUS INFECTION” (Hoffmann-La Roche Inc., priority 2018, published 2022).

Test system: HBV cccDNA (HBeAg as surrogate marker) in HepDES19 cells
Assay: Engineered HepDES19 primary screen assay (HBeAg as surrogate marker for cccDNA)
Type: cell-based
Conditions: Hepatitis B virus, HepDES19, 120 h
Source text: The assay was employed to screen for cccDNA inhibitors. HepDES19 is a cccDNA-producing cell line. In this cell line, HBeAg in the cell culture supernatant as surrogate marker, as HBeAg production depends on cccDNA level and activity. HepDES19 is an engineered cell line which contains a 1.1 unit length HBV genome, and pgRNA transcription from the transgene is controlled by Tetracycline (Tet). In the absence of Tet, pgRNA transcription will be induced, but HBV e antigen (HBeAg) could not be produced from this pgRNA due to very short leader sequence before the HBeAg start codon and the start codon is disrupted. Only after cccDNA is formed, the missing leader sequence and start codon mutation would be restored from the 3′-terminal redundancy of pgRNA, and then HBeAg could be synthesized. Therefore, HBeAg could be used as a surrogate marker for cccDNA (Zhou, T. et al., Antiviral Res. (2006), 72 (2), 116-124; Guo, H. et al., J. Virol. (2007), 81 (22), 12472-12484).
HepDES19 cells were seeded at 2×10^6 cells per T150 flask and cultured with the culture medium (Dulbecco's Modified Eagle Medium: Nutrient Mixture F-12 [DMEM-F12, Gibco Cat. 11320-82], 10% Fetal Bovine Serum [FBS, Clontech Cat. 631101], 0.1 mM Non-Essential Amino Acids Solution [NEAA, Gibco Cat. 11140-050], 50 μg/mL Penicillin-Streptomycin [PS, Invitrogen Cat. 15140-163], 500 μg/mL Geneticin [G418, Invitrogen Cat. 10131-027]) containing 3 μg/mL Tet (Sigma, Cat. 87128) for 5 days. Cells were then seeded at 4×10^6 cells per T150 in the same culture medium as described above in the absence of Tet for 8 days. Cells were then harvested and frozen at density of 2×10^6 cells per mL. For compound testing, the frozen cells were thawed and seeded into 96-well plates at a density of 6×10^4 cells per well. At 24 hours after seeding, half log serial dilutions of compounds made with Dimethyl sulfoxide (DMSO, Sigma, Cat. D2650) were further diluted with the same culture medium as described above before they were added to the cells to reach desired final compound concentrations and 1% DMSO concentration. Plates were then incubated at 37° C. for another 5 days before measurement of HBeAg level and cell viability. Intracellular HBeAg level were measured with enzyme-linked immunosorbent assay (ELISA) kit (Shanghai Kehua Diagnostic Medical Products Co., Ltd). Cell viability was assessed using Cell Counting Kit-8 (DonJindo, Cat. CK04-20). IC50 values were derived from the dose-response curve using 4 parameters logistic curve fit method.
The compounds of the present invention were tested for their capacity to inhibit extracellular HBeAg level as described herein.

Row | Structure (SMILES) | IC50 [µM]
1 | O=C(O)CCOc1cc(OC(F)(F)F)c(Br)cc1C1CC(=O)c2cccc(Cl)c2O1 (centres unmarked) [Example 15, 3-[4-bromo-2-(8-chloro-4-oxo-chroman-2-yl)-5-(trifluoromethoxy)phenoxy]propanoic Acid] | 1.5
2 | CCNS(=O)(=O)N[C@H](COc1cc(C(F)(F)F)ccc1[C@@H]1CC(=O)c2cccc(Cl)c2O1)C(=O)O [Example 31-A, (2R)-3-[2-[(2S)-8-chloro-4-oxo-chroman-2-yl]-5-(trifluoromethyl)phenoxy]-2-(ethylsulfamoylamino)propanoic acid] | 3.3
3 | Cc1cc(C2CC(=O)c3cccc(Cl)c3O2)c(OCCC(=O)O)cc1Br (centres unmarked) [Example 7, 3-[5-bromo-2-(8-chloro-4-oxo-chroman-2-yl)-4-methyl-phenoxy]propanoic Acid] | 9.41
4 | O=C(O)CCCOc1cc(C(F)(F)F)ccc1C1CC(=O)c2ccc(F)c(Cl)c2O1 (centres unmarked) [Example 25, 4-[2-(8-chloro-7-fluoro-4-oxo-chroman-2-yl)-5-(trifluoromethyl)phenoxy]butanoic Acid] | 1.18
5 | O=C(O)CCOc1cc(C(F)(F)F)ccc1C1CC(=O)c2c(O)ccc(Cl)c2O1 (centres unmarked) [Example 6, 3-[2-(8-chloro-5-hydroxy-4-oxo-chroman-2-yl)-5-(trifluoromethyl)phenoxy]propanoic Acid] | 5.22
6 | O=C1CC(c2ccc(Br)cc2O[C@H]2C[C@@H](C(=O)O)C2)Oc2c(Cl)cccc21 (stereo partly drawn) [Example 37, cis-3-[5-bromo-2-(8-chloro-4-oxo-chroman-2-yl)phenoxy]cyclobutanecarboxylic Acid] | 0.67
7 | Cc1ccc(C2CC(=O)c3cccc(Cl)c3O2)c(OCCCOCC(=O)O)c1 (centres unmarked) [Example 22, 2-[3-[2-(8-chloro-4-oxo-chroman-2-yl)-5-methyl-phenoxy]propoxy]acetic Acid] | 1.99
8 | O=C(O)COCCOc1cc(C(F)(F)F)ccc1C1CC(=O)c2cccc(Cl)c2O1 (centres unmarked) [Example 21, 2-[2-[2-(8-chloro-4-oxo-chroman-2-yl)-5-(trifluoromethyl)phenoxy]ethoxy]acetic Acid] | 4.89
9 | O=C1CC(c2ccc(C(F)(F)F)cc2OCCO)Oc2c1ccc(F)c2Cl (centres unmarked) [Example 34, 8-chloro-7-fluoro-2-[2-(2-hydroxyethoxy)-4-(trifluoromethyl)phenyl]chroman-4-one] | 3.36
10 | O=C(O)COCCCOc1cc(C(F)(F)F)ccc1C1CC(=O)c2cccc(Cl)c2O1 (centres unmarked) [Example 23, 2-[3-[2-(8-chloro-4-oxo-chroman-2-yl)-5-(trifluoromethyl)phenoxy]propoxy]acetic Acid] | 1.56
11 | CC(C)(COc1cc(C(F)(F)F)ccc1C1CC(=O)c2cccc(Cl)c2O1)C(=O)O (centres unmarked) [Example 19, 3-[2-(8-chloro-4-oxo-chroman-2-yl)-5-(trifluoromethyl)phenoxy]-2,2-dimethyl-propanoic Acid] | 0.26
12 | COc1cc(OCCC(=O)O)c(C2CC(=O)c3cccc(Cl)c3O2)cc1C (centres unmarked) [Example 9, 3-[2-(8-chloro-4-oxo-chroman-2-yl)-5-methoxy-4-methyl-phenoxy]propanoic Acid] | 9.41
13 | O=C(O)C(=O)NCCOc1cc(Cl)ccc1C1CC(=O)c2cccc(Cl)c2O1 (centres unmarked) [Example 36, 2-[2-[5-chloro-2-(8-chloro-4-oxo-chroman-2-yl)phenoxy]ethylamino]-2-oxo-acetic Acid] | 12.9
14 | O=C(O)CCOc1cc(Br)ccc1[C@H]1CC(=O)c2cccc(Cl)c2O1 [Example 16-B, 3-[5-bromo-2-[(2R)-8-chloro-4-oxo-chroman-2-yl]phenoxy]propanoic Acid] | 0.48
15 | CCS(=O)(=O)N[C@@H](COc1cc(C(F)(F)F)ccc1C1CC(=O)c2cccc(Cl)c2O1)C(=O)O (stereo partly drawn) [Example 29, (2S)-3-[2-(8-chloro-4-oxo-chroman-2-yl)-5-(trifluoromethyl)phenoxy]-2-(ethylsulfonylamino)propanoic Acid] | 1.91
16 | O=C(O)COc1cc(C(F)(F)F)ccc1C1CC(=O)c2ccc(F)c(Cl)c2O1 (centres unmarked) [Example 26, 2-[2-(8-chloro-7-fluoro-4-oxo-chroman-2-yl)-5-(trifluoromethyl)phenoxy]acetic Acid] | 2.78

Row | Structure (SMILES) | IC50 [µM]
17 | NS(=O)(=O)N[C@H](COc1cc(C(F)(F)F)ccc1[C@H]1CC(=O)c2cccc(Cl)c2O1)C(=O)O [Example 30-B, (2R)-3-[2-[(2R)-8-chloro-4-oxo-chroman-2-yl]-5-(trifluoromethyl)phenoxy]-2-(sulfamoylamino)propanoic Acid] | 10.7
18 | COc1cc(C2CC(=O)c3cccc(Cl)c3O2)c(OCCC(=O)O)cc1Cl (centres unmarked) [Example 10, 3-[5-chloro-2-(8-chloro-4-oxo-chroman-2-yl)-4-methoxy-phenoxy]propanoic Acid] | 11.4
19 | CCS(=O)(=O)N[C@H](COc1cc(C(F)(F)F)ccc1C1CC(=O)c2cccc(Cl)c2O1)C(=O)OC (stereo partly drawn) [Example 27, Methyl (2R)-3-[2-(8-chloro-4-oxo-chroman-2-yl)-5-(trifluoromethyl)phenoxy]-2-(ethylsulfonylamino)propanoate] | 0.58
20 | O=C(O)COCCCOc1cc(C(F)(F)F)ccc1C1CC(=O)c2ccc(F)c(Cl)c2O1 (centres unmarked) [Example 24, 2-[3-[2-(8-chloro-7-fluoro-4-oxo-chroman-2-yl)-5-(trifluoromethyl)phenoxy]propoxy]acetic Acid] | 7.14
21 | COc1cc(C2CC(=O)c3cccc(Cl)c3O2)c(OCCC(=O)O)cc1Br (centres unmarked) [Example 8, 3-[5-bromo-2-(8-chloro-4-oxo-chroman-2-yl)-4-methoxy-phenoxy]propanoic Acid] | 11.3
22 | COc1cc(Cl)c2c(c1)C(=O)CC(c1ccc(C(F)(F)F)cc1OCCC(=O)O)O2 (centres unmarked) [Example 5, 3-[2-(8-chloro-6-methoxy-4-oxo-chroman-2-yl)-5-(trifluoromethyl)phenoxy]propanoic Acid] | 3.06
23 | CCNS(=O)(=O)N[C@H](COc1cc(C(F)(F)F)ccc1[C@H]1CC(=O)c2cccc(Cl)c2O1)C(=O)O [Example 31-B, (2R)-3-[2-[(2R)-8-chloro-4-oxo-chroman-2-yl]-5-(trifluoromethyl)phenoxy]-2-(ethylsulfamoylamino)propanoic Acid] | 10.9
24 | Cc1cc(C2CC(=O)c3cccc(Cl)c3O2)c(OC2CC(C(=O)O)C2)cc1Cl (centres unmarked) [Example 18, 3-[5-chloro-2-(8-chloro-4-oxo-chroman-2-yl)-4-methyl-phenoxy]cyclobutanecarboxylic Acid] | 0.765
25 | NS(=O)(=O)N[C@H](COc1cc(C(F)(F)F)ccc1[C@@H]1CC(=O)c2cccc(Cl)c2O1)C(=O)O [Example 30-A, (2R)-3-[2-[(2S)-8-chloro-4-oxo-chroman-2-yl]-5-(trifluoromethyl)phenoxy]-2-(sulfamoylamino)propanoic Acid] | 3.37
26 | O=C1CC(c2ccc(C(F)(F)F)cc2OCCOC2CC(C(=O)O)C2)Oc2c(Cl)cccc21 (centres unmarked) [Example 20, 3-[2-[2-(8-chloro-4-oxo-chroman-2-yl)-5-(trifluoromethyl)phenoxy]ethoxy]cyclobutanecarboxylic Acid] | 0.01
27 | O=C1CC(c2ccc(C(F)(F)F)cc2OC2CC(C(=O)O)C2)Oc2c(Cl)cccc21 (centres unmarked) [Example 17, 3-[2-(8-chloro-4-oxo-chroman-2-yl)-5-(trifluoromethyl)phenoxy]cyclobutanecarboxylic Acid] | 1.56
28 | O=C(O)CCOc1cc2c(cc1C1CC(=O)c3cccc(Cl)c3O1)OCO2 (centres unmarked) [Example 12, 3-[[6-(8-chloro-4-oxo-chroman-2-yl)-1,3-benzodioxol-5-yl]oxy]propanoic Acid] | 10.1
29 | COc1ccc2c(c1Cl)OC(c1ccc(C(F)(F)F)cc1OCCC(=O)O)CC2=O (centres unmarked) [Example 4, 3-[2-(8-chloro-7-methoxy-4-oxo-chroman-2-yl)-5-(trifluoromethyl)phenoxy]propanoic Acid] | 5.25
30 | O=C1CC(c2ccc(C(F)(F)F)cc2OCCCO)Oc2c1ccc(F)c2Cl (centres unmarked) [Example 33, 8-chloro-7-fluoro-2-[2-(3-hydroxypropoxy)-4-(trifluoromethyl)phenyl]chroman-4-one] | 0.68
31 | O=C(O)CCOc1cc(Br)ccc1[C@@H]1CC(=O)c2cccc(Cl)c2O1 [Example 16-A, 3-[5-bromo-2-[(2S)-8-chloro-4-oxo-chroman-2-yl]phenoxy]propanoic Acid] | 2.43
32 | Cc1cc(C2CC(=O)c3cccc(Cl)c3O2)c(OCCC(=O)O)cc1Cl (centres unmarked) [Example 14, 3-[5-chloro-2-(8-chloro-4-oxo-chroman-2-yl)-4-methyl-phenoxy]propanoic Acid] | 1.05
